1 molecule from paper PMC11971462, “Generation and validation of a novel multitarget small molecule in glioblastoma” (Cell Death & Disease, 2025) can be followed below.

The target of one test is HDAC1 (Homo sapiens, UniProt Q13547). The test is described as follows: HDAC1 enzyme inhibition. The class given is biochemical. Conditions: read-out: HDAC inhibition IC50 HDAC1. On the procedure: The inhibitory capacity of DDI199 on HDACs was studied as previously described. The capacity of DDI199 to inhibit MAOs was studied by mimicking the reaction occurring in cells. Briefly, inhibitor solution containing 10 µM of DDI199 or reference compound was incubated for 30 minutes at 37 °C together with the enzyme solution, containing either recombinant hMAO-A (Sigma-Aldrich) at 0.5 U/mL or hMAO-B (Sigma-Aldrich) at 1.5 U/mL. 200 U/mL horseradish peroxidase (Sigma-Aldrich), 20 mM Ampliflu Red (Sigma-Aldrich) and 100 mM tyramine hydrochloride (Sigma-Aldrich) were then added and absorbance at 570 nm was measured every 5 minutes for 30 minutes. Percentage of inhibition was estimated from these values.
Sequence of HDAC1 (Q13547 whole entry): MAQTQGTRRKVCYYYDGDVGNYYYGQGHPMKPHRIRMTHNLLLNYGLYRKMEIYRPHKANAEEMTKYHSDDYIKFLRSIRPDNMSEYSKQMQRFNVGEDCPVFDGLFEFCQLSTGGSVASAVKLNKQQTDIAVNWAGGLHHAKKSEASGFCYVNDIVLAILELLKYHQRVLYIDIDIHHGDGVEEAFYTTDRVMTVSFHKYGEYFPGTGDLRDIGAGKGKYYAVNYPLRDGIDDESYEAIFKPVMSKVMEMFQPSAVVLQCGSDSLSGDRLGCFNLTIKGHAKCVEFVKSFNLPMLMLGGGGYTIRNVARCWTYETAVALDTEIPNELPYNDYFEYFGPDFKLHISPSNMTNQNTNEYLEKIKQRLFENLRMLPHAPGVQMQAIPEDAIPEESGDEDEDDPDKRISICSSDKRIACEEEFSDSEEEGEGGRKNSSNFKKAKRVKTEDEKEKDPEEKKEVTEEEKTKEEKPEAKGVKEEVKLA

For the next test, the system named is U87-MG cells. The test is described as follows: Subcutaneous U87-MG tumor growth, combined treatment with TMZ. The class given is in vivo, athymic nude-Foxn1nu mice. As to the method: For tumor growth experiments, 5 × 10^5 U87-MG cells were subcutaneously injected into two bottom flanks of athymic nude-Foxn1^nu mice, and once tumors reached a size of 25-50 mm^3, mice were sorted into groups taking into account gender and tumor size. Afterwards, mice were intratumorally treated with vehicle, SAHA 100 µM or DDI199 100 µM following a schedule of 5 days on and 2 days off. In combined treatment, mice were treated intraperitoneally with 0.5 mg/Kg of TMZ for 5 days and intratumorally following a schedule of 5 days on and 2 days off with vehicle, SAHA 100 µM or DDI199 100 µM. After 4 weeks of treatment, some mice were kept for washout experiment, while the rest were sacrificed and tumors were extracted for immunohistochemistry and to disaggregate for reinjection and oncosphere formation studies. For reinjection assays, 1.5 × 10^5 cells were subcutaneously injected and tumor size was periodically measured. Once tumors reached end-point criteria, they were extracted for immunohistochemical analysis. An external caliper was used for tumor size measurement and the tumor volume was estimated using the formula V = L · W^2 · 0.5 (where L is tumor length and W is the tumor width).

For the next test, the system named is GNS179 cells. Description: Immunofluorescence of pH3, Cleaved Caspase 3. The format is cell-based, human. Conditions: for pH3-positive cells: control […]. As to the method: Immunofluorescence assays were performed following standard procedures. Cells were seeded at a density of 2 × 10^4 cells/well in 8-well immunofluorescence chambers (LabTek Thermo) and incubated overnight before treating with increasing concentrations of DDI199. After 48 h, cells were fixed with 4% PFA. Primary antibodies against phosphohistone H3 (pH3) (ab14955, abcam), Cleaved Caspase 3 (AF385, R&D Systems), Ki67 (ab15580, abcam) and PARP1 (ab32064, abcam) were used. Secondary antibodies were Alexa Fluor anti-mouse (A21422, Invitrogen) and Alexa Fluor anti-rabbit (A31572, Invitrogen), and chromatin was stained with DAPI (D9541, Sigma-Aldrich). Axio Observer 7 epifluorescence microscope was used to take pictures, which were later quantified in Qupath.

Another test relates to U87-MG tumors. Description: Immunohistochemistry of subcutaneous tumors. The class given is in vivo, athymic nude-Foxn1nu mice. As to the method:
Subcutaneous tumors were extracted, fixed with 4% formaldehyde for 48 h and embedded in paraffin. Tumor sections were obtained and stainings for acetyl H3 (9649, Cell Signaling), acetylated α-tubulin (ab179484, abcam), PCNA (Ab18197, abcam) and Cleaved Caspase 3 (AF835, R&D Systems) were performed. ZEISS Axioscan 7 slide scanner was used to capture images of the stainings and analyses were done using Qupath.

Another test deals with glioma cells. Description: MTT cell viability, summary for glioma cells. The class given is cell-based. As to conditions: Homo sapiens, 72 h, summary statement, read-out: IC50 cell viability in different glioma cells. As to the method:
MTT assay was used to study cell viability. For that, cells were seeded at a density of 1.5 × 10^3 cells/well in 96-well plates, incubated overnight and then treated with increasing concentrations of DDI199. After 72 h of treatment, MTT absorbance was measured at 570 nm. GraphPad Prism software was used to analyze results and calculate IC50 values.

Test [1] relates to GNS166 cells. The test is described as follows: q-RTPCR of selected DEGs. The format is cell-based, human. As to conditions: GNS166 treated versus non-treated. As to the method: Total RNA was extracted using Trizol (Life Thechnologies). Reverse transcription was then performed with the Maxima First Strand cDNA Synthesis Kit (ThermoFisher), following manufacturer’s guidelines. Quantitative real-time PCR was carried out in a CFX384 Thermal Cycler (BioRad) by Absolute SYBR Green mix (ThermoFisher). GAPDH was used as housekeeping gene for the correction of variations on initial cDNA levels, and relative gene expression was determined using the 2^-ΔΔCt formula.

Test [2] relates to GNS166 cells. Description: EdU cell proliferation assay. The format is cell-based, human. Conditions: GNS166, 5 µM. On the procedure: Click-iT™ EdU Cell Proliferation Kit for Imaging (Invitrogen) was used according to the manufacturer’s instructions. Briefly, GNS166 cells were seeded and maintained overnight before DDI199 treatment. After 48 h, fresh culture medium containing 10 μM of EdU was added for 24 h and then, cells were fixed with 4% paraformaldehyde. Axio Observer 7 epifluorescence microscope was used to take pictures, which were later quantified in Qupath.

Another test concerns the target T1, recombinant hBChE (Homo sapiens, UniProt P06276).
T1 construct: purchased Sigma-Aldrich
The test is described as follows: BChE inhibition and kinetics, Ellman's colorimetric method. The class given is biochemical. As to the method:
Similarly, Ellman’s colorimetric method was used to study the inhibitory capacity of the compound on ChEs. Enzyme solution containing either recombinant hAChE (Sigma-Aldrich) at 0.5 U/mL or hBChE (Sigma-Aldrich) at 0.25 U/mL was incubated with inhibitor solution containing 10 µM of DDI199 or reference compound and 0.3 mM of DTNB (Sigma-Aldrich) for 20 minutes at 37 °C. […] In addition, kinetic of enzyme inhibition was also studied by repeating the same protocol and using five different concentrations of the substrate and four different concentrations of the inhibitor. Results were represented in a Lineweaver-Burk plot using GraphPad Prism software, and the constant of inhibition (Ki) was estimated from the point at which the line cuts the x-axis at the secondary plot.
A general note: In Ellman's method for cholinesterases, released thiocholine reacts with DTNB.

The mark [3] stands for this setting: TMZ 0.5 mg/kg ip + DDI199 100 µM intratumoral.

Several values for one entry are separate records, joined by “and”; a condition that tells them apart may be missing. Equal entries are not always repeated.

T1 sequence (P06276 29-602): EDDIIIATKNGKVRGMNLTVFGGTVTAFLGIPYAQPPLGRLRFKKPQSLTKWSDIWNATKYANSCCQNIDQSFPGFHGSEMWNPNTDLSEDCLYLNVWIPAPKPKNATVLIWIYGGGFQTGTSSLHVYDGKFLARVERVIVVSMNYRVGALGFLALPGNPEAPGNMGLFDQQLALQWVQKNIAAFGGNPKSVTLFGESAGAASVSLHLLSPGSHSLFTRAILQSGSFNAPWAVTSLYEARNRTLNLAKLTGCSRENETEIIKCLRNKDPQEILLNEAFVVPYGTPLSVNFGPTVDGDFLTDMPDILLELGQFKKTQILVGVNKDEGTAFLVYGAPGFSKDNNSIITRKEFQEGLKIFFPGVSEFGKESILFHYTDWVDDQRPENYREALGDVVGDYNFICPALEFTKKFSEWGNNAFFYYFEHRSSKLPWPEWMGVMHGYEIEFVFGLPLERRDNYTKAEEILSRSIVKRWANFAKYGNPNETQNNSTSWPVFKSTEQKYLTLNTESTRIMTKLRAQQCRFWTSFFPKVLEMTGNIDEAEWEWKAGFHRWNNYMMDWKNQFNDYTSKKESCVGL

A word on the IC50: it is the concentration at which inhibition is half-maximal. A word on the inhibition: it is how much of the control response was suppressed. Usually Ki stands for a measure of affinity in units of concentration, obtained from inhibition or displacement. Regarding `C#CCN(Cc1cc2cc(OCCCN3CCCCC3)ccc2n1S(=O)(=O)c1ccccc1)C(=O)CCCCCCC(=O)NO` [DDI199], the IC50 on HDAC1 was 377 nM and 370 nM. Also, the “Mean tumor volume, combined with TMZ” value in the test on U87-MG cells (TMZ 0.5 mg/kg ip 5 days + 100 µM intratumoral, end-point, controls 600 mm^3) came out at 115 mm^3. In the test with U87-MG cells (setting [3]), the “Reduction in final tumor volume versus TMZ + SAHA, combined with TMZ” value is on record as approximately 70%; the “Reduction in final tumor volume versus controls, combined with TMZ” value turned out to be 80%; the “Reduction in tumor volume versus TMZ alone, combined with TMZ” value is listed as 70%; the “Reduction in tumor weight versus TMZ + SAHA, combined with TMZ” value is on record as 47%. Besides, in the test on U87-MG cells (setting [3]), the “Reduction in tumor weight versus TMZ alone, combined with TMZ” value was 65% and the “Reduction in tumor weight versus controls, combined with TMZ” value stood at 65%. Moreover, the pH3-positive cells in the test with GNS179 cells (GNS179, 1 µM) turned out to be 2.4%. Further, the pH3-positive cells with GNS179 cells (GNS179, 5 µM) was found to be 0.8%. Also, the pH3-positive cells with GNS179 cells (GNS179, 10 µM) came out at 0.11%. The “Cleaved Caspase-3-positive cells” value in the test on GNS179 cells (GNS179, 1, 5 and 10 µM) is reported as “increase”. Further, the “acetyl H3 immunohistochemical staining” value with U87-MG tumors (tumors at day 34, 100 µM intratumoral) came to 83%. Moreover, the “acetyl α-tubulin immunohistochemical staining” value in the test with U87-MG tumors (tumors at day 34, control 0.25) was 0.32. In the test on U87-MG tumors (tumors at day 34, control 0.7%), the “Cleaved Caspase 3 positive cells” value is reported as 1.5%. The molecule further had a PCNA positive cells with U87-MG tumors (tumors at day 34, control 70%) of 64%. In the test on glioma cells, the IC50 was less than 5000 nM. Further, in the test on GNS166 cells [1], the “Expression of genes associated to neurotransmission/synapsis (q-RTPCR)” value is recorded as “significantly higher”; the “Expression of genes associated with cell cycle and DNA remodeling (q-RTPCR)” value is “significantly reduced”. The EdU positive cells result in the test on GNS166 cells [2] is “almost blocking completely”. Moreover, at recombinant hBChE, the half-maximal inhibitory concentration (IC50) was found to be 2540 nM. The inhibition at 10 µM at recombinant hBChE (10 µM compound, read-out: BChE inhibition percentage) amounted to 75%. Further, on recombinant hBChE (Lineweaver-Burk plot), the “BChE type of inhibition” value is reported as “mixed inhibition”. In addition, the inhibition constant Ki at recombinant hBChE (from Lineweaver-Burk and secondary plots) was 870 nM.
